Article PMC5951806, “Rapid labelling and covalent inhibition of intracellular native proteins using ligand-directed N-acyl-N-alkyl sulfonamide” (Nature Communications, 2018)

Legend:
Experiment in all cases: TMT LC-MSMS of 11-labelled proteins
Type in all cases: cell-based
[1] = biological target: Dolichyl-diphosphooligosaccharide--protein glycosyltransferase 48 kDa subunit (DDOST) (Homo sapiens, UniProt P39656)
From the text: (§1) Supplement 41467_2018_4343_MOESM4_ESM.xlsx, sheet "Exp2" | column: Abundance Ratio: (11) / (11 with PU-H71); Abundance Ratio: (11) / (DMSO); Abundances (Grouped): 11; Abundances (Grouped): 11 with PU-H71

[2] = biological target: T1, Monocarboxylate transporter 4 (SLC16A3) (Homo sapiens, UniProt O15427)
T1 sequence (O15427 1-465): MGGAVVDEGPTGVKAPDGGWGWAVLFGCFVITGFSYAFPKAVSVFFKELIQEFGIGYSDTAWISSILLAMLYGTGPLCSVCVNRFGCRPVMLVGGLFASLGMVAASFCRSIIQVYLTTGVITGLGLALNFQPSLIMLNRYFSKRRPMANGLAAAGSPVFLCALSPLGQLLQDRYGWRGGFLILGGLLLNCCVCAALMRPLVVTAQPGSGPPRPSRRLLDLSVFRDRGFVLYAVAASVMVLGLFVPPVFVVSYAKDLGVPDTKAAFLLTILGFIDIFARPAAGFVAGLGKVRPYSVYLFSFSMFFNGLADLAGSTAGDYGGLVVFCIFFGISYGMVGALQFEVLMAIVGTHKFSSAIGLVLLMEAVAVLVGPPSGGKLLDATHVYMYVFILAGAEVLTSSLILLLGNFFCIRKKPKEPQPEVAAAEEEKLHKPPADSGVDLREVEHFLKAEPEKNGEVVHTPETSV
From the text: as §1

[3] = biological target: T2, Phosphate carrier protein, mitochondrial (SLC25A3) (Homo sapiens, UniProt Q00325)
T2 sequence (Q00325 50-362): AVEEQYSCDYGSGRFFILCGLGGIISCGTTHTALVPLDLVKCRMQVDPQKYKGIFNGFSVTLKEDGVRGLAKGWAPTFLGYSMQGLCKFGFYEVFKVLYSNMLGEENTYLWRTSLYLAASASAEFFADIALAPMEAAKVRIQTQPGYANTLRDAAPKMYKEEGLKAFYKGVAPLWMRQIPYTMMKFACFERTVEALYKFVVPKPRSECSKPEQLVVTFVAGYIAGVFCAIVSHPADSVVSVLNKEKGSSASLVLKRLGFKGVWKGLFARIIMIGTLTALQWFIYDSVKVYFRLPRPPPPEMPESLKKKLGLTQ
From the text: as §1

[4] = biological target: Isoform 2 of Glucose-6-phosphate isomerase (GPI) (Homo sapiens, UniProt P06744)
From the text: as §1

[5] = biological target: Dolichyl-diphosphooligosaccharide--protein glycosyltransferase subunit 1 (RPN1) (Homo sapiens, UniProt P04843)
Dolichyl-diphosphooligosaccharide--protein glycosyltransferase subunit 1 (RPN1), sequence (P04843 24-607): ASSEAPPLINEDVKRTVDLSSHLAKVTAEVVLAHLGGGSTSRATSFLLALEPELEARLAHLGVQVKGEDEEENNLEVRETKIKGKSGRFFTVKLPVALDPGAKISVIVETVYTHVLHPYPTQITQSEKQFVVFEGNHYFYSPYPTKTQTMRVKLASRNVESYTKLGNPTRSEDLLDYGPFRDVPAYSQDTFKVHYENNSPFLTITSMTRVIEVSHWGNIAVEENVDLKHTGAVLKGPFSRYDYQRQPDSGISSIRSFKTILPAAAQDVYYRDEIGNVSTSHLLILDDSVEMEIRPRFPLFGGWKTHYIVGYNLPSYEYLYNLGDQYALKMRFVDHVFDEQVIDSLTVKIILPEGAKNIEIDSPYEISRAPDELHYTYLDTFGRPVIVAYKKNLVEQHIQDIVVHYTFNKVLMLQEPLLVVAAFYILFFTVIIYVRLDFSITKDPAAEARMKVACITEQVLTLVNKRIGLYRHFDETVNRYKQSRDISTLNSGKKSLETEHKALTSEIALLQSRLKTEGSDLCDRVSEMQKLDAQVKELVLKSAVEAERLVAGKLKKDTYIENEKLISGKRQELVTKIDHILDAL
Dolichyl-diphosphooligosaccharide--protein glycosyltransferase subunit 1 (RPN1), sequence (P39656 43-456 partner): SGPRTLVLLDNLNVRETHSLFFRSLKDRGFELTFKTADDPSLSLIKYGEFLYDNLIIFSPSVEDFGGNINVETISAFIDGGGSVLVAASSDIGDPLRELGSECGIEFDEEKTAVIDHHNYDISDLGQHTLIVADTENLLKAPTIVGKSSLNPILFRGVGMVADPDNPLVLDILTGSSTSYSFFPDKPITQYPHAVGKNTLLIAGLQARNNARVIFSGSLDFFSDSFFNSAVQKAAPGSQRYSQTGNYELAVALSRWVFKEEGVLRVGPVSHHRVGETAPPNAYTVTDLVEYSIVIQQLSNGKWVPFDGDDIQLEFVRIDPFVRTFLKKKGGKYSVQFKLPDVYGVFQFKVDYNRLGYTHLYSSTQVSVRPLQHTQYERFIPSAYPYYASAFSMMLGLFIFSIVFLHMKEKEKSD
Dolichyl-diphosphooligosaccharide--protein glycosyltransferase subunit 1 (RPN1), sequence (P04844 23-631 partner): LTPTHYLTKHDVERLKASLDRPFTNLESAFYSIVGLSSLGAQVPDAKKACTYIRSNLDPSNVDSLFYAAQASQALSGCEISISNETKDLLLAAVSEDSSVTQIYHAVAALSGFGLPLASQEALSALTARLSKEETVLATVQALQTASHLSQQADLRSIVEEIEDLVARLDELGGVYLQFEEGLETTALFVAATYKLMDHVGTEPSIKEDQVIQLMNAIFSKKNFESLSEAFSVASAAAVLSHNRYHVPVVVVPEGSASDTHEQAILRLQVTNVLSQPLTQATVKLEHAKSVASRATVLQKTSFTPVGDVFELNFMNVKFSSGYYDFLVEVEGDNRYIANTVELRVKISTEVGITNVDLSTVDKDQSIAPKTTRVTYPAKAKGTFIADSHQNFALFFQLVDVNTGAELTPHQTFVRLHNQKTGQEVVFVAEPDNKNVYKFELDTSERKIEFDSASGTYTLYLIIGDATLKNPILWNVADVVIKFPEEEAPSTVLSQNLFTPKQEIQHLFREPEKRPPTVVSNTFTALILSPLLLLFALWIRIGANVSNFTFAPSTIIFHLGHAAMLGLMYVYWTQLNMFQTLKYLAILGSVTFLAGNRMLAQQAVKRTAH
Dolichyl-diphosphooligosaccharide--protein glycosyltransferase subunit 1 (RPN1), sequence (P61803 whole entry partner): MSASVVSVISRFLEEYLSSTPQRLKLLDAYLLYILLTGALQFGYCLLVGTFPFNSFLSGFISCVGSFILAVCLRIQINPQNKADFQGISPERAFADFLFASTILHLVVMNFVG
Dolichyl-diphosphooligosaccharide--protein glycosyltransferase subunit 1 (RPN1), sequence (P61165 whole entry partner): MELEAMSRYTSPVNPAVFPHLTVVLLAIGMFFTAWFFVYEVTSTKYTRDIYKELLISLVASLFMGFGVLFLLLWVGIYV
Dolichyl-diphosphooligosaccharide--protein glycosyltransferase subunit 1 (RPN1), sequence (P0C6T2 whole entry partner): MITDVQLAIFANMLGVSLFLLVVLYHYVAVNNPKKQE
From the text: as §1

protein MAL2 (MAL2) = protein MAL2 (MAL2) (Homo sapiens, UniProt Q969L2)
protein MAL2 (MAL2), sequence (Q969L2 whole entry): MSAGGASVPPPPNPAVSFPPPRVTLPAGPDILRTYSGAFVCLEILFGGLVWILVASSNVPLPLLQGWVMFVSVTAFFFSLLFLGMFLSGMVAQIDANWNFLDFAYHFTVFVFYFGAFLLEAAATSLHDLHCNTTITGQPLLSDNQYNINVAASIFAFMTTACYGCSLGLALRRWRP
From the text: as §1

[6] = biological target: T3, Isoform 3 of Hexokinase-1 (HK1) (Homo sapiens, UniProt P19367); for Abundance Ratio: (11) / (DMSO): test concentration or dose not given here
T3 sequence (P19367 1-921 isoform P19367-3): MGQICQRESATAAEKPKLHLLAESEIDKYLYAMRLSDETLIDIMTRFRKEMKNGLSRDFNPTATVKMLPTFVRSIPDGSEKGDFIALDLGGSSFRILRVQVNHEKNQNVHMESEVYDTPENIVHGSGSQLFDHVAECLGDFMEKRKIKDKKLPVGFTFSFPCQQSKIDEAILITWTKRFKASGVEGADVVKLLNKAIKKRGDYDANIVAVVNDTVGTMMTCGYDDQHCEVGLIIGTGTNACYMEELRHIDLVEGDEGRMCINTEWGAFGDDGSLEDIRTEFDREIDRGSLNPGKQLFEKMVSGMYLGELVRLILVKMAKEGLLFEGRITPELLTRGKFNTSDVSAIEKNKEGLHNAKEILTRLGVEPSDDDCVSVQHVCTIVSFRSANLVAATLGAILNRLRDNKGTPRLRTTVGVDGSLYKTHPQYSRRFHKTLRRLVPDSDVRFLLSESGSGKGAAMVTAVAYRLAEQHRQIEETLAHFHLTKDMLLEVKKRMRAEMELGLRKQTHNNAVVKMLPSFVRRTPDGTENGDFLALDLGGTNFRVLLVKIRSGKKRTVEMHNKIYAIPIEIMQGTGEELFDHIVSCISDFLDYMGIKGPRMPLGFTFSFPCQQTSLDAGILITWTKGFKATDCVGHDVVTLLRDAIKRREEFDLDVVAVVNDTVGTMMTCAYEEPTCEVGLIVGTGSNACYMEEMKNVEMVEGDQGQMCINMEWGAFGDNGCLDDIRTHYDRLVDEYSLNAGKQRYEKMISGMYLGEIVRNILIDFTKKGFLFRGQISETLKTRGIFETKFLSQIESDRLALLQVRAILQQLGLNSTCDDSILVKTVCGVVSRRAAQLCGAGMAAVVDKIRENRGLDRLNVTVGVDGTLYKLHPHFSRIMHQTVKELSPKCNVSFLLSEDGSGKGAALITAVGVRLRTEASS
From the text: (§2) Supplement 41467_2018_4343_MOESM4_ESM.xlsx, sheet "Exp3" | column: Abundance Ratio: (11) / (11 with PU-H71); Abundance Ratio: (11) / (DMSO); Abundances (Grouped): 11; Abundances (Grouped): 11 with PU-H71

[7] = biological target: T1, Monocarboxylate transporter 4 (SLC16A3); remark: listed apart in the source
From the text: as §2

[8] = biological target: T2, Phosphate carrier protein, mitochondrial (SLC25A3); remark: listed apart in the source
From the text: as §2

Dolichyl-diphosphooligosaccharide--protein glycosyltransferase 48 kDa subunit (DDOST), sequence (P39656 43-456): as the sequence (P39656 43-456 partner) above
Dolichyl-diphosphooligosaccharide--protein glycosyltransferase 48 kDa subunit (DDOST), sequence (P04843 24-607 partner): as the sequence (P04843 24-607) above
Dolichyl-diphosphooligosaccharide--protein glycosyltransferase 48 kDa subunit (DDOST), sequence (P04844 23-631 partner): as the sequence (P04844 23-631 partner) above
Dolichyl-diphosphooligosaccharide--protein glycosyltransferase 48 kDa subunit (DDOST), sequence (P61803 whole entry partner): as the sequence (P61803 whole entry partner) above
Dolichyl-diphosphooligosaccharide--protein glycosyltransferase 48 kDa subunit (DDOST), sequence (P61165 whole entry partner): as the sequence (P61165 whole entry partner) above
Dolichyl-diphosphooligosaccharide--protein glycosyltransferase 48 kDa subunit (DDOST), sequence (P0C6T2 whole entry partner): as the sequence (P0C6T2 whole entry partner) above

- Abundance Ratio: (11) / (11 with PU-H71) ([1]; sheet Exp2): 0.942
- Abundance Ratio: (11) / (DMSO) ([1]; sheet Exp2): 2.044
- Abundances (Grouped): 11 ([1]; sheet Exp2): 37.4
- Abundances (Grouped): 11 with PU-H71 ([1]; sheet Exp2, with PU-H71): 39.7
- Abundance Ratio: (11) / (11 with PU-H71) ([2]; sheet Exp2): 0.892
- Abundance Ratio: (11) / (DMSO) ([2]; sheet Exp2): 8.305
- Abundances (Grouped): 11 ([2]; sheet Exp2): 225.9
- Abundances (Grouped): 11 with PU-H71 ([2]; sheet Exp2, with PU-H71): 253.2
- Abundance Ratio: (11) / (11 with PU-H71) ([3]; sheet Exp2): 0.7
- Abundance Ratio: (11) / (DMSO) ([3]; sheet Exp2): 2.264
- Abundances (Grouped): 11 ([3]; sheet Exp2): 124.5
- Abundances (Grouped): 11 with PU-H71 ([3]; sheet Exp2, with PU-H71): 177.9
- Abundance Ratio: (11) / (11 with PU-H71) ([4]; sheet Exp2): 0.768
- Abundance Ratio: (11) / (DMSO) ([4]; sheet Exp2): 2.545
- Abundances (Grouped): 11 ([4]; sheet Exp2): 34.1
- Abundances (Grouped): 11 with PU-H71 ([4]; sheet Exp2, with PU-H71): 44.4
- Abundance Ratio: (11) / (11 with PU-H71) ([5]; sheet Exp2): 0.909
- Abundance Ratio: (11) / (DMSO) ([5]; sheet Exp2): 2.785
- Abundances (Grouped): 11 ([5]; sheet Exp2): 47.9
- Abundances (Grouped): 11 with PU-H71 ([5]; sheet Exp2, with PU-H71): 52.7
- Abundance Ratio: (11) / (11 with PU-H71) (protein MAL2 (MAL2); sheet Exp2): 0.886
- Abundance Ratio: (11) / (DMSO) (protein MAL2 (MAL2); sheet Exp2): 3.449
- Abundances (Grouped): 11 (protein MAL2 (MAL2); sheet Exp2): 114.5
- Abundances (Grouped): 11 with PU-H71 (protein MAL2 (MAL2); sheet Exp2, with PU-H71): 129.3
- Abundance Ratio: (11) / (11 with PU-H71) ([6]; Exp3): 1.072
- Abundance Ratio: (11) / (DMSO) ([6]; Exp3): 2.893
- Abundances (Grouped): 11 ([6]; Exp3): 29.8
- Abundances (Grouped): 11 with PU-H71 ([6]; Exp3, with PU-H71): 27.8
- Abundance Ratio: (11) / (11 with PU-H71) ([7]; Exp3): 0.921
- Abundance Ratio: (11) / (DMSO) ([7]; Exp3): 12.228
- Abundances (Grouped): 11 ([7]; Exp3): 353.4
- Abundances (Grouped): 11 with PU-H71 ([7]; Exp3, with PU-H71): 383.7
- Abundance Ratio: (11) / (11 with PU-H71) ([8]; Exp3): 0.732
- Abundance Ratio: (11) / (DMSO) ([8]; Exp3): 2.193
- Abundances (Grouped): 11 ([8]; Exp3): 121.3
- Abundances (Grouped): 11 with PU-H71 ([8]; Exp3, with PU-H71): 165.7
SMILES: CC(=O)Oc1ccc2c(c1)Oc1cc(OC(C)=O)ccc1C21OC(=O)c2cc(C(=O)NCCOCCOCCNC(=O)CCCC(=O)N(CC#N)S(=O)(=O)c3ccc(C(=O)NCCCn4c(Sc5cc6c(cc5I)OCO6)nc5c(N)ncnc54)cc3)ccc21 [compound 11]
